A melting point of 96 °C was found for `CCOC(=O)C(C)(CCC1=C(C)C(=O)c2ccccc2C1=O)C(=O)OCC` in this work.
